Consider 19 compounds from US6677347B2, “Sulfonamido ether substituted imidazoquinolines” (3M Innovative Properties Company, priority 2000, dated 2004).

For data set [1], the system named is tumor necrosis factor (α). Kind of data set: Cytokine Induction in Human Cells: tumor necrosis factor (α) by ELISA or IGEN assay. The format is cell-based. Also noted: key to Lowest Effective Concentration (μM) Tumor Necrosis Factor: *: no induction was seen at any of the tested concentrations; generally the highest concentration tested was 10 or 30 μM. The settings on record: human PBMC, 18 to 24 hours incubation, lowest concentration found to induce tumor necrosis factor. The source says: (§1) An in vitro human blood cell system is used to assess cytokine induction. Activity is based on the measurement of interferon and tumor necrosis factor (α) (IFN and TNF, respectively) secreted into culture media as described by Testerman et. al. In “Cytokine Induction by the Immunomodulators Imiquimod and S-27609”, Journal of Leukocyte Biology, 58, 365-372 (September, 1995).
(§2) Whole blood from healthy human donors is collected by venipuncture into EDTA vacutainer tubes. Peripheral blood mononuclear cells (PBMC) are separated from whole blood by density gradient centrifugation using Histopaque®-1077. Blood is diluted 1:1 with Dulbecco's Phosphate Buffered Saline (DPBS) or Hank's Balanced Salts Solution (HBSS). The PBMC layer is collected and washed twice with DPBS or HBSS and resuspended at 4×10^6 cells/mL in RPMI complete. The PBMC suspension is added to 48 well flat bottom sterile tissue culture plates (Costar, Cambridge, Mass. or Becton Dickinson Labware, Lincoln Park, N.J.) containing an equal volume of RPMI complete media containing test compound.
(§3) The compounds are solubilized in dimethyl sulfoxide (DMSO). The DMSO concentration should not exceed a final concentration of 1% for addition to the culture wells. The compounds are generally tested at concentrations ranging from 30-0.014 μM.
(§4) The solution of test compound is added at 60 μM to the first well containing RPMI complete and serial 3 fold dilutions are made in the wells. The PBMC suspension is then added to the wells in an equal volume, bringing the test compound concentrations to the desired range (30-0.014 μM). The final concentration of PBMC suspension is 2×10^6 cells/mL. The plates are covered with sterile plastic lids, mixed gently and then incubated for 18 to 24 hours at 37° C. in a 5% carbon dioxide atmosphere.
(§5) Following incubation the plates are centrifuged for 10 minutes at 1000 rpm (˜200×g) at 4° C. The cell-free culture supernatant is removed with a sterile polypropylene pipet and transferred to sterile polypropylene tubes. Samples are maintained at −30 to −70° C. until analysis. The samples are analyzed for interferon (α) by ELISA and for tumor necrosis factor (α) by ELISA or IGEN Assay
Tumor necrosis factor (α) (TNF) concentration is determined using ELISA kits available from Biosource International, Camarillo, Calif. Alternately, the TNF concentration can be determined by Origen® M-Series Immunoassay and read on an IGEN M-8 analyzer from IGEN International, Gaithersburg, Md. The immunoassay uses a human TNF capture and detection antibody pair from Biosource International, Camarillo, Calif. Results are expressed in pg/mL.
(§6) The table below lists the lowest concentration found to induce interferon and the lowest concentration found to induce tumor necrosis factor for each compound.

A further data set has as its system interferon (α). Kind of data set: Cytokine Induction in Human Cells: interferon (α) by ELISA. The format is cell-based. Further details: key to Lowest Effective Concentration (μM) Interferon: *: no induction was seen at any of the tested concentrations; generally the highest concentration tested was 10 or 30 μM. The settings on record: human PBMC, 18 to 24 hours incubation, lowest concentration found to induce interferon.
Text: as §1, §2, §3, §4, §5
Interferon (α) concentration is determined by ELISA using a Human Multi-Species kit from PBL Biomedical Laboratories, New Brunswick, N.J. Results are expressed in pg/mL.
as §6
A general note: In an ELISA, binding on a coated surface is turned into a signal by an enzyme label.

In general, melting point refers to the temperature of the solid-liquid transition. The compound `COCCc1nc2c(N)nc3ccccc3c2n1CCOCCNS(C)(=O)=O` [Example 1, N-(2-{2-[4-amino-2-(2-methoxyethyl)-1H-imidazo[4,5-c]quinolin-1-yl]ethoxy}ethyl)methanesulfonamide] gave a melting point of 114 to 117 °C. The same measure, in the same setting: in the case of `COCCc1nc2c(N)nc3c(c2n1CCOCCNS(C)(=O)=O)CCCC3` [Example 2, N-(2-{2-[4-amino-2-(2-methoxyethyl)-6,7,8,9-tetrahydro-1H-imidazo[4,5-c]quinolin-1-yl]ethoxy}ethyl)methanesulfonamide] it was 151 to 153 °C. The term minimal effective concentration denotes the lowest level tested that produced the effect sought. `COCCc1nc2c(N)nc3ccccc3c2n1CCOCCN(C)S(C)(=O)=O` [Example 3, N-(2-{2-[4-amino-2-(2-methoxyethyl)-1H-imidazo[4,5-c]quinolin-1-yl]ethoxy}ethyl)-N-methylmethanesulfonamide] registered a melting point of 145 to 146.5 °C. In data set [1], this compound returned a minimal effective concentration of 0.12 µM. Besides, the minimal effective concentration with interferon (α) turned out to be 0.01 µM. With `COCCc1nc2c(N)nc3c(c2n1CCOCCN(C)S(C)(=O)=O)CCCC3` [Example 4, N-(2-{2-[4-amino-2-(2-methoxyethyl)-6,7,8,9-tetrahydro-1H-imidazo[4,5-c]quinolin-1-yl]ethoxy}ethyl)-N-methylmethanesulfonamide], the melting point fell in the range of 115.3 to 117.8 °C. Consider `CCCCc1nc2c(N)nc3ccccc3c2n1CCOCCN1CCCS1(=O)=O` [Example 5, 2-Butyl-1-{2-[2-(1,1-dioxidoisothiazolidin-2-yl)ethoxy]ethyl}-1H-imidazo[4,5-c]quinolin-4-amine], for which the melting point lay within 152 to 154 °C.

Regarding `Nc1nc2ccccc2c2c1ncn2CCOCCNS(=O)(=O)c1ccc(C(F)(F)F)cc1` [Example 46], the “Lowest Effective Concentration (μM) Tumor Necrosis Factor” value in data set [1] is “*”. Further, the “Lowest Effective Concentration (μM) Interferon” value in the data set on interferon (α) was “*”.

Regarding `Nc1nc2ccccc2c2c1ncn2CCOCCNS(=O)(=O)c1ccc(-c2ccccc2)cc1` [Example 47], the “Lowest Effective Concentration (μM) Tumor Necrosis Factor” value in data set [1] is recorded as “*”. For the same compound, in the data set with interferon (α), the “Lowest Effective Concentration (μM) Interferon” value is given as “*”. Compound `CS(=O)(=O)c1ccc(S(=O)(=O)NCCOCCn2cnc3c(N)nc4ccccc4c32)cc1` [Example 48] gave a minimal effective concentration in data set [1] of 10 µM. Besides, the “Lowest Effective Concentration (μM) Interferon” value in the data set with interferon (α) is reported as “*”.

The compound `Nc1nc2ccccc2c2c1ncn2CCOCCNS(=O)(=O)c1ccc(OC(F)(F)F)cc1` [Example 49] yielded a minimal effective concentration in data set [1] of 10 µM. Besides, in the data set with interferon (α), the “Lowest Effective Concentration (μM) Interferon” value is recorded as “*”. Regarding `Cc1nc2c(N)nc3ccccc3c2n1CCCOCCOCCCNS(=O)(=O)c1cccc2c(N(C)C)cccc12` [Example 50, N-[10-(4-amino-2-methyl-1H-imidazo[4,5-c]quinolin-1-yl)-4,7-dioxadecyl]-5-dimethylaminonaphthalene-1-sulfonamide], the “Lowest Effective Concentration (μM) Tumor Necrosis Factor” value in data set [1] is recorded as “*”. The same compound displayed a minimal effective concentration in the data set with interferon (α) of 1.11 µM. `Cc1nc2c(N)nc3ccccc3c2n1CCOCCN` [Example 51, 1-[2-(2-aminoethoxy)ethyl]-2-methyl-1H-imidazo[4,5-c]quinolin-4-amine] came in with a melting point of 155 to 157 °C. Still for that read-out and setting: in the case of `CCc1nc2c(N)nc3ccccc3c2n1CCOCCN` [Example 52, 1-[2-(2-aminoethoxy)ethyl]-2-ethyl-1H-imidazo[4,5-c]quinolin-4-amine] it was 144 to 146 °C; in that of `Cc1nc2c(N)nc3ccccc3c2n1CCOCCNS(C)(=O)=O` [Example 54, N-{2-[2-(4-amino-2-methyl-1H-imidazo[4,5-c]quinolin-1-yl)ethoxy]ethyl}methanesulfonamide], 152 to 155 °C.

On to `Cc1nc2c(N)nc3ccccc3c2n1CCOCCNS(=O)(=O)C(C)C` [Example 55, N-{2-[2-(4-amino-2-methyl-1H-imidazo[4,5-c]quinolin-1-yl)ethoxy]ethyl}propane-2-sulfonamide], for which the melting point is 172 to 175 °C. Same read-out and setting: in the case of `CCc1nc2c(N)nc3ccccc3c2n1CCOCCNS(C)(=O)=O` [Example 56, N-{2-[2-(4-amino-2-ethyl-1H-imidazo[4,5-c]quinolin-1-yl)ethoxy]ethyl}methanesulfonamide] it was 169 to 171 °C; in that of `CCOCc1nc2c(N)nc3ccccc3c2n1CCOCCNS(C)(=O)=O` [Example 57, N-(2-{2-[4-amino-2-(ethoxymethyl)-1H-imidazo[4,5-c]quinolin-1-yl]ethoxy}ethyl)methanesulfonamide], 152 to 155 °C. On the same count and under the same terms, the figure for `CCOCc1nc2c(N)nc3ccccc3c2n1CCOCCNS(=O)(=O)C(C)C` [Example 58, N-(2-{2-[4-amino-2-(ethoxymethyl)-1H-imidazo[4,5-c]quinolin-1-yl]ethoxy}ethyl)propane-2-sulfonamide] is 139 to 142 °C. For the compound `COCCc1nc2c(N)nc3ccccc3c2n1CCOCCN(C)S(=O)(=O)C(C)C` [Example 59, N-(2-{2-[4-amino-2-(2-methoxyethyl)-1H-imidazo[4,5-c]quinolin-1-yl]ethoxy}ethyl)-N-methylpropane-2-sulfonamide], the melting point is 129.7 to 130.2 °C. Consider `Cc1nc2c(N)nc3ccccc3c2n1CCOCCN1CCCS1(=O)=O` [Example 60, 1-{2-[2-(1,1-Dioxidoisothiazolidin-2-yl)ethoxy]ethyl}-2-methyl-1H-imidazo[4,5-c]quinolin-4-amine], for which the melting point lay in the range of 186 to 187 °C.
